ChEMBL document CHEMBL1134114, “Novel sulfonate derivatives: potent antimitotic agents” (Bioorg Med Chem Lett, 2001)

Experiments:
HCT-15 [1] = experiment: Antiproliferative activity against human colon carcinoma HCT-15 cell line(MDR(+)); Inactive at >10 uM
NCI-H460 [2] = experiment: Antiproliferative activity against human lung carcinoma NCI-H460 cell line (MDR(-)); Inactive at >10 uM
HCT-15 [3] = experiment: Antiproliferative activity against human colon carcinoma HCT-15 cell line(MDR(+))
NCI-H460 [4] = experiment: Antiproliferative activity against human lung carcinoma NCI-H460 cell line (MDR(-))
Tubulin alpha chain = Tubulin alpha chain (Sus scrofa, UniProt P02550); experiment: Concentration inhibiting tubulin polymerization; type: functional
Chain of Tubulin alpha chain (P02550 whole entry, looked up): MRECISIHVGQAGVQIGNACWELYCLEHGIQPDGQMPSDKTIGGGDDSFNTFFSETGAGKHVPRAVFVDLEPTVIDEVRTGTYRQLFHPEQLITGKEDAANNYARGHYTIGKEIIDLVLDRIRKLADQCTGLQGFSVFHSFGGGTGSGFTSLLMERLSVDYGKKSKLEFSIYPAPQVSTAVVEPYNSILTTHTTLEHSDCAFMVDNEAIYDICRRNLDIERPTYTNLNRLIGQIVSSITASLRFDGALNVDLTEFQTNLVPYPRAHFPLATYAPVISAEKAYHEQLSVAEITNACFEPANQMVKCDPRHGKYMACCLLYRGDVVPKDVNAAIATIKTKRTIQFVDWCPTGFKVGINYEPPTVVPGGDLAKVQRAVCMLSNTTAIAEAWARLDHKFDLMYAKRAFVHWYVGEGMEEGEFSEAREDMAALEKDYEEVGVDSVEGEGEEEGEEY

## COc1ccc(S(=O)(=O)Oc2cccnc2NC(=O)c2ccncc2)cc1
HCT-15 [1]
  IC50: Not Active
NCI-H460 [2]
  IC50: Not Active

## COc1ccc(S(=O)(=O)Oc2ccccc2NC(=O)c2ccc3ncccc3c2)cc1
HCT-15 [3]
  IC50: > 10000 nM
NCI-H460 [4]
  IC50: > 10000 nM

## COc1ccc(S(=O)(=O)Oc2ccccc2NC(=O)c2ccc(N(C)C)cc2)cc1
HCT-15 [3]
  IC50: > 10000 nM
NCI-H460 [4]
  IC50: > 10000 nM

## COc1ccc(S(=O)(=O)Oc2ccccc2NC(=O)c2cnccn2)cc1
HCT-15 [3]
  IC50: 68 nM
NCI-H460 [4]
  IC50: 250 nM
Tubulin alpha chain
  IC50: 5200 nM

## COc1ccc(S(=O)(=O)Oc2ccccc2C(=O)Nc2ccccc2C)cc1
HCT-15 [1]
  IC50: Not Active
NCI-H460 [2]
  IC50: Not Active

## COc1ccc(S(=O)(=O)Oc2ccccc2NC(=O)c2ccnc3ccccc23)cc1
HCT-15 [3]
  IC50: > 10000 nM
NCI-H460 [4]
  IC50: > 10000 nM

## COc1ccc(S(=O)(=O)Oc2cccnc2NC(=O)c2ccco2)cc1
HCT-15 [1]
  IC50: Not Active
NCI-H460 [2]
  IC50: Not Active

## COc1ccc(S(=O)(=O)Oc2ccccc2C(=O)Nc2ccccc2)cc1
HCT-15 [1]
  IC50: Not Active
NCI-H460 [2]
  IC50: Not Active

## COc1ccc(S(=O)(=O)Oc2ccccc2/C=C/c2ccncc2)cc1
HCT-15 [3]
  IC50: 56 nM
NCI-H460 [4]
  IC50: 130 nM
Tubulin alpha chain
  IC50: 3460 nM

## COc1ccc(S(=O)(=O)Oc2ccccc2NC(=O)c2ccccc2)cc1
HCT-15 [3]
  IC50: 310 nM
NCI-H460 [4]
  IC50: 410 nM

## COc1ccc(S(=O)(=O)Oc2ccccc2C(=O)Nc2ccncc2)cc1
HCT-15 [1]
  IC50: Not Active
NCI-H460 [2]
  IC50: Not Active

## COc1ccc(S(=O)(=O)Oc2ccccc2NC(=O)c2ccc(F)cc2)cc1
HCT-15 [3]
  IC50: 89 nM
NCI-H460 [4]
  IC50: 550 nM

## COc1ccc(S(=O)(=O)Oc2ccccc2NC(=O)c2ccncc2)cc1
HCT-15 [3]
  IC50: 89 nM
NCI-H460 [4]
  IC50: 55 nM
Tubulin alpha chain
  IC50: 3730 nM

## COc1ccc(S(=O)(=O)Oc2ccccc2NC(=O)c2cccnc2)cc1
HCT-15 [3]
  IC50: > 3000 nM
NCI-H460 [4]
  IC50: > 6000 nM

## COc1ccc(S(=O)(=O)Oc2ccccc2NC(=O)c2ccccn2)cc1
HCT-15 [3]
  IC50: 110 nM
NCI-H460 [4]
  IC50: 300 nM
Tubulin alpha chain
  IC50: 4060 nM

## COc1ccc(S(=O)(=O)Oc2ccccc2NC(=O)Oc2ccccc2)cc1
HCT-15 [3]
  IC50: > 10000 nM
NCI-H460 [4]
  IC50: > 10000 nM

## COc1ccc(S(=O)(=O)Oc2ccccc2C(=O)Nc2ccc(F)cc2)cc1
HCT-15 [1]
  IC50: Not Active
NCI-H460 [2]
  IC50: Not Active

## COc1ccc(S(=O)(=O)Oc2ccccc2NC(=O)c2ccco2)cc1
HCT-15 [3]
  IC50: 19 nM
NCI-H460 [4]
  IC50: 24 nM

## COc1ccc(S(=O)(=O)Oc2ccccc2NC(=O)Cc2ccncc2)cc1
HCT-15 [3]
  IC50: 600 nM
NCI-H460 [4]
  IC50: 720 nM

## COc1ccc(S(=O)(=O)Oc2ccccc2NC(=O)Nc2ccccc2)cc1
HCT-15 [3]
  IC50: > 10000 nM
NCI-H460 [4]
  IC50: > 10000 nM

## COc1ccc(S(=O)(=O)Nc2cccnc2Nc2ccc(O)cc2)cc1 [ABT-751]
HCT-15 [3]
  IC50: 340 nM
NCI-H460 [4]
  IC50: 350 nM
Tubulin alpha chain
  IC50: 3100 nM
